Measured values: patent publication US8492346B2, “Methods of use of epsilon inhibitor compounds for the attenuation of pain” (KAI Pharmaceuticals, Inc., priority 2007, dated 2013)

Columns and labels:
[1] = Chemical stability of cargo/carrier peptide constructs; assay type: physicochemical
Method: (§1) The plasma and chemical stability of various cargo/carrier peptide constructs described in Example 1 was tested. Plasma stability of the compounds was tested using both human and rat sera and the amount of starting material was determined after 30 minutes of treatment. Chemical stability was evaluated by determining the amount of starting material remaining after 9 days of treatment.
The chemical stability of various cargo/carrier peptide constructs described in Example 1 was tested by examining the relative concentration of the peptides over a time period of more than 200 hours at 37° C.

[2] = Plasma stability in human sera; assay type: in vitro ADME; conditions: plasma; human sera, 30 minutes
Method: as §1
(§2) The plasma stability of various cargo/carrier peptide constructs described in Example 1 was tested using both human and rat sera and the amount of starting material was determined over time to 30 minutes of treatment. The time course data for cargo/carrier peptides KP-1586, KP-1630, and KP-1631 is shown in FIG. 3, the data for peptides KP-1632, KP-1633, and KP-1634 is shown in FIG. 4, and the data for peptides KP-1635, KP-1636, and KP-1637 is shown in FIG. 5.

[3] = Plasma stability in rat sera; assay type: in vitro ADME; conditions: 30 minutes
Method: as §1, §2

With `CC(=O)N[C@@H](CCSSC[C@H](NC(C)=O)C(=O)N[C@@H](CCC(=O)O)C(=O)N[C@@H](C)C(=O)N[C@H](C(=O)N[C@@H](CO)C(=O)N[C@@H](CC(C)C)C(=O)N[C@@H](CCCCN)C(=O)N1CCC[C@H]1C(=O)N[C@H](C(N)=O)[C@@H](C)O)C(C)C)C(=O)N[C@@H](Cc1ccc(O)cc1)C(=O)NCC(=O)N[C@@H](CCCNC(=N)N)C(=O)N[C@@H](CCCCN)C(=O)N[C@@H](CCCCN)C(=O)N[C@@H](CCCNC(=N)N)C(=O)N[C@@H](CCCNC(=N)N)C(=O)N[C@@H](CCC(N)=O)C(=O)N[C@@H](CCCNC(=N)N)C(=O)N[C@@H](CCCNC(=N)N)C(=O)N[C@@H](CCCNC(=N)N)C(=O)O` [KP-1637, Ac-C-E-A-V-S-L-K-P-T-NH2] the “Chemical Stability % Remaining at 9 days” value ([1]; 9 days of treatment) was 100%, the “Chemical stability, time course of relative concentration” value ([1]; more than 200 hours at 37° C., FIG. 6) was “marked stability” and the remaining at 0.5 h [2] was 60%. It also gave a remaining at 0.5 h [3] of 78%.
